The record followed here is publication PMC4532999 (Scientific Reports, 2015).

Positions of bridges follow the written chain, without caps; N, C: chain ends. Non-standard residues stand in square brackets, D forms with d. Residues, ends and D or L forms follow the SMILES beside them. No end group written: not given here. pY = N[C@@H](Cc1ccc(OP(=O)(O)O)cc1)C(=O)O Bounds are passed on as bounds.

The target of one series is Abl kinase (Homo sapiens, UniProt P00519). Description: BacKin assay, inhibition of phosphorylation of abltide displayed on E. coli. It is filed as biochemical. The note with it: 32 μM peptide, Abl kinase 0.2 U/mL, 37 °C, 30 min.
The nature of another series: Serum stability assay. The note with it: 100% human serum, 37 °C. As for the experimental part:
All peptides were tested at a final concentration of 30 μM in 100% human serum. […] Reactions were stopped at the stipulated times and the serum proteins in each sample were denatured and precipitated, followed by centrifugation at 17,000 g for 10 min to separate the serum proteins from peptide samples. […] The elution time for each peptide was determined by the PBS control from 0 time point. The percentage of peptide remaining at each time point was calculated using the height of the serum-treated peptide peak from time 0 as 100% recovery.

Another series deals with HeLa cells. On the procedure:
Since BCR-ABL localizes predominantly in the cytoplasm, it is important to evaluate whether the designed peptides can be internalized into cells.
Human cervical cancer cells (HeLa) were seeded in 175-cm^2 tissue culture flasks (Falcon), in Dulbecco’s Modified Eagle’s Medium (DMEM) supplemented with 10% fetal bovine serum, 100 U/mL penicillin and […] streptomycin, until 80% confluent.
Cytotoxicity of the MTAbl peptides towards HeLa cells was evaluated before the cell internalization assay. The mammalian cell cytotoxicity assay was conducted using a method described earlier. HeLa cells were seeded the day before the assay in 96-well tissue culture-treated plates (2.5 × 10^3 cells/well). […] Peptide solutions were diluted 10-fold with serum-free medium and incubated with cells in triplicates for 2 h. […] Following incubation the peptide solutions were removed and aliquots of 10 μL of 0.02% (w/v) sterile resazurin (resazurin sodium salt, Sigma) were added to each well containing 100 μL of fresh medium. […] The absorbance of the plates was measured on a plate reader at 540 and 620 nm.

Chain of Abl kinase (P00519 whole entry): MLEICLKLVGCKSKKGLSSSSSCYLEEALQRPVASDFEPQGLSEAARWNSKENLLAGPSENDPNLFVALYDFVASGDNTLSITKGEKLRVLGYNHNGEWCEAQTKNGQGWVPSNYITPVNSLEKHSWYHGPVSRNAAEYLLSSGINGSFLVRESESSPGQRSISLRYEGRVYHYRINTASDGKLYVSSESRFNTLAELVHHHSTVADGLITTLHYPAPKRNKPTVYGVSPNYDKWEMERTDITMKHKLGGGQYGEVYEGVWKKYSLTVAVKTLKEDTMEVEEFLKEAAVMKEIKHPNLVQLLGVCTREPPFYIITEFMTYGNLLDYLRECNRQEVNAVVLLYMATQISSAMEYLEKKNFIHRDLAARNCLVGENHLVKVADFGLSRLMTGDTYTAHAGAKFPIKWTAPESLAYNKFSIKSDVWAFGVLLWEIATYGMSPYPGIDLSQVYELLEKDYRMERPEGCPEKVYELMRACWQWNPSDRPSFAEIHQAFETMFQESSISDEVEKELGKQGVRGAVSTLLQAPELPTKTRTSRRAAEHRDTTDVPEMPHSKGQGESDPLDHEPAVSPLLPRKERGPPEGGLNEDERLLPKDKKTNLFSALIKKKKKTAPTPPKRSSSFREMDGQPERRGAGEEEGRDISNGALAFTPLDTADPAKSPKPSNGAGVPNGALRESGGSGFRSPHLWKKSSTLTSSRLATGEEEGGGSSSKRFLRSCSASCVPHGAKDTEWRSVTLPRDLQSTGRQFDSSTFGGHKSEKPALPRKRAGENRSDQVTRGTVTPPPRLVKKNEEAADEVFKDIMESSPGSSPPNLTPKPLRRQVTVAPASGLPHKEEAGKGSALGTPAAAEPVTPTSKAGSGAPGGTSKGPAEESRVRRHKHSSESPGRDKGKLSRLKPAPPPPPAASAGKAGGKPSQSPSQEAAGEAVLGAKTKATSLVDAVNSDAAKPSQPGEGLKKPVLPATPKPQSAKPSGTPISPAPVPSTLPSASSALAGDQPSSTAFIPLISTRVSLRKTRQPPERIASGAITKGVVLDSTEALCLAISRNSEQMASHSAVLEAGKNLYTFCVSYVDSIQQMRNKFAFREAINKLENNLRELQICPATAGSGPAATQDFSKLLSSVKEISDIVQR

Regarding `CC[C@H](C)[C@@H]1NC(=O)[C@H](C)NC(=O)[C@H](CCC(=O)O)NC(=O)CNC(=O)[C@@H]2CSSC[C@@H]3NC(=O)[C@H](CC(=O)O)NC(=O)[C@H](CO)NC(=O)[C@H](CC(=O)O)NC(=O)[C@H](CCCNC(=N)N)NC(=O)[C@H](CCCNC(=N)N)NC(=O)[C@@H]4CSSC[C@H](NC(=O)[C@H]([C@@H](C)CC)NC(=O)[C@H](CSSC[C@H](NC(=O)[C@H](CCCCN)NC(=O)[C@H](C)NC(=O)[C@H](Cc5ccccc5)NC(=O)[C@@H]5CCCN5C(=O)[C@H](C)NC(=O)[C@H](C)NC(=O)[C@H](Cc5ccc(O)cc5)NC1=O)C(=O)N1CCC[C@H]1C(=O)N[C@@H](CCCCN)C(=O)N[C@@H]([C@@H](C)CC)C(=O)N[C@@H](CC(C)C)C(=O)N[C@@H](CCCCN)C(=O)N[C@@H](CCCCN)C(=O)N4)NC(=O)[C@H](C)NC(=O)CNC(=O)[C@@H]1CCCN1C3=O)C(=O)N[C@@H](CCCNC(=N)N)C(=O)NCC(=O)N[C@@H](CC(N)=O)C(=O)NCC(=O)N[C@@H](Cc1ccc(O)cc1)C(=O)N2` [MTAbl05] (cyclo(AAPFAKCPKILKKCRRDSDCPGACICRGNGYCGEAIY); disulfide 7-24, 14-26, 20-32), at Abl kinase, the “percentage of Abl kinase inhibition” value is given as ~ 90%. Turning to `CC[C@H](C)[C@@H]1NC(=O)[C@H](C)NC(=O)[C@H](CCC(=O)O)NC(=O)[C@@H]2CSSC[C@@H]3NC(=O)[C@H](CC(=O)O)NC(=O)[C@H](CO)NC(=O)[C@H](CC(=O)O)NC(=O)[C@H](CCCNC(=N)N)NC(=O)[C@H](CCCNC(=N)N)NC(=O)[C@@H]4CSSC[C@H](NC(=O)[C@H]([C@@H](C)CC)NC(=O)[C@H](CSSC[C@H](NC(=O)[C@H](CCCCN)NC(=O)[C@H](C)NC(=O)[C@H](Cc5ccccc5)NC(=O)[C@@H]5CCCN5C(=O)[C@H](C)NC(=O)[C@H](C)NC(=O)[C@H](Cc5ccc(O)cc5)NC1=O)C(=O)N1CCC[C@H]1C(=O)N[C@@H](CCCCN)C(=O)N[C@@H]([C@@H](C)CC)C(=O)N[C@@H](CC(C)C)C(=O)N[C@@H](CCCCN)C(=O)N[C@@H](CCCCN)C(=O)N4)NC(=O)[C@H](C)NC(=O)CNC(=O)[C@@H]1CCCN1C3=O)C(=O)N[C@@H](CCCNC(=N)N)C(=O)NCC(=O)N[C@@H](CC(N)=O)C(=O)NCC(=O)N[C@@H](Cc1ccc(O)cc1)C(=O)N2` [MTAbl04] (cyclo(AAPFAKCPKILKKCRRDSDCPGACICRGNGYCEAIY); disulfide 7-24, 14-26, 20-32), the “percentage of Abl kinase inhibition” value on Abl kinase was ~ 50%.

With `CC[C@H](C)[C@@H]1NC(=O)[C@H](C)NC(=O)[C@H](CCC(=O)O)NC(=O)[C@@H]2CSSC[C@@H]3NC(=O)[C@H](CC(=O)O)NC(=O)[C@H](CO)NC(=O)[C@H](CC(=O)O)NC(=O)[C@H](CCCNC(=N)N)NC(=O)[C@H](CCCNC(=N)N)NC(=O)[C@@H]4CSSC[C@H](NC(=O)[C@H]([C@@H](C)CC)NC(=O)[C@H](CSSC[C@H](NC(=O)CNC(=O)[C@H](C)NC(=O)[C@H](Cc5ccccc5)NC(=O)[C@@H]5CCCN5C(=O)[C@H](C)NC(=O)[C@H](C)NC(=O)[C@H](Cc5ccc(O)cc5)NC1=O)C(=O)N1CCC[C@H]1C(=O)N[C@@H](CCCCN)C(=O)N[C@@H]([C@@H](C)CC)C(=O)N[C@@H](CC(C)C)C(=O)N[C@@H](CCCCN)C(=O)N[C@@H](CCCCN)C(=O)N4)NC(=O)[C@H](C)NC(=O)CNC(=O)[C@@H]1CCCN1C3=O)C(=O)N[C@@H](CCCNC(=N)N)C(=O)NCC(=O)N[C@@H](CC(N)=O)C(=O)NCC(=O)N[C@@H](Cc1ccc(O)cc1)C(=O)N2` [MTAbl03] (cyclo(AAPFAGCPKILKKCRRDSDCPGACICRGNGYCEAIY); disulfide 7-24, 14-26, 20-32), the “percentage of Abl kinase inhibition” value on Abl kinase amounted to 50%.

Turning to `CC[C@H](C)[C@@H]1NC(=O)[C@H](C)NC(=O)[C@H](CCC(=O)O)NC(=O)CNC(=O)[C@@H]2CSSC[C@@H]3NC(=O)[C@H](CC(=O)O)NC(=O)[C@H](CO)NC(=O)[C@H](CC(=O)O)NC(=O)[C@H](CCCNC(=N)N)NC(=O)[C@H](CCCNC(=N)N)NC(=O)[C@@H]4CSSC[C@H](NC(=O)[C@H]([C@@H](C)CC)NC(=O)[C@H](CSSC[C@H](NC(=O)[C@H](CCCNC(=N)N)NC(=O)[C@H](C)NC(=O)[C@H](Cc5ccccc5)NC(=O)[C@@H]5CCCN5C(=O)[C@H](C)NC(=O)[C@H](C)NC(=O)[C@H](Cc5ccc(OP(=O)(O)O)cc5)NC1=O)C(=O)N1CCC[C@H]1C(=O)N[C@@H](CCCCN)C(=O)N[C@@H]([C@@H](C)CC)C(=O)N[C@@H](CC(C)C)C(=O)N[C@@H](CCCCN)C(=O)N[C@@H](CCCCN)C(=O)N4)NC(=O)[C@H](C)NC(=O)CNC(=O)[C@@H]1CCCN1C3=O)C(=O)N[C@@H](CCCNC(=N)N)C(=O)NCC(=O)N[C@@H](CC(N)=O)C(=O)NCC(=O)N[C@@H](Cc1ccc(O)cc1)C(=O)N2` [MTAbl12] (cyclo(AAPFARCPKILKKCRRDSDCPGACICRGNGYCGEAI[pY]); disulfide 7-24, 14-26, 20-32), the “stability in human serum (in words; comparison to MCoTI-II at 24 h)” value in the series “Serum stability assay” (24 h, one-way ANOVA, three replicates) is on record as “lower stability”. Take `CC[C@H](C)[C@@H]1NC(=O)[C@H](C)NC(=O)[C@H](CCC(=O)O)NC(=O)CNC(=O)[C@@H]2CSSC[C@@H]3NC(=O)[C@H](CC(=O)O)NC(=O)[C@H](CO)NC(=O)[C@H](CC(=O)O)NC(=O)[C@H](CCCNC(=N)N)NC(=O)[C@H](CCCNC(=N)N)NC(=O)[C@@H]4CSSC[C@H](NC(=O)[C@H]([C@@H](C)CC)NC(=O)[C@H](CSSC[C@H](NC(=O)CNC(=O)[C@H](C)NC(=O)[C@H](Cc5ccccc5)NC(=O)[C@@H]5CCCN5C(=O)[C@H](C)NC(=O)[C@H](C)NC(=O)[C@H](Cc5ccc(O)cc5)NC1=O)C(=O)N1CCC[C@H]1C(=O)N[C@@H](CCCCN)C(=O)N[C@@H]([C@@H](C)CC)C(=O)N[C@@H](CC(C)C)C(=O)N[C@@H](CCCCN)C(=O)N[C@@H](CCCCN)C(=O)N4)NC(=O)[C@H](C)NC(=O)CNC(=O)[C@@H]1CCCN1C3=O)C(=O)N[C@@H](CCCNC(=N)N)C(=O)NCC(=O)N[C@@H](CC(N)=O)C(=O)NCC(=O)N[C@@H](Cc1ccc(O)cc1)C(=O)N2` [MTAbl02] (cyclo(AAPFAGCPKILKKCRRDSDCPGACICRGNGYCGEAIY); disulfide 7-24, 14-26, 20-32): the “percentage of Abl kinase inhibition” value at Abl kinase is listed as 90%. `CC[C@H](C)[C@@H]1NC(=O)[C@H](C)NC(=O)[C@H](CCC(=O)O)NC(=O)CNC(=O)[C@@H]2CSSC[C@@H]3NC(=O)[C@H](CC(=O)O)NC(=O)[C@H](CO)NC(=O)[C@H](CC(=O)O)NC(=O)[C@H](CCCNC(=N)N)NC(=O)[C@H](CCCNC(=N)N)NC(=O)[C@@H]4CSSC[C@H](NC(=O)[C@H]([C@@H](C)CC)NC(=O)[C@H](CSSC[C@H](NC(=O)[C@H](CCCNC(=N)N)NC(=O)[C@H](CCCNC(=N)N)NC(=O)[C@H](CCCNC(=N)N)NC(=O)[C@H](C)NC(=O)[C@H](Cc5ccccc5)NC(=O)[C@@H]5CCCN5C(=O)[C@H](C)NC(=O)[C@H](C)NC(=O)[C@H](Cc5ccc(O)cc5)NC1=O)C(=O)N1CCC[C@H]1C(=O)N[C@@H](CCCNC(=N)N)C(=O)N[C@@H]([C@@H](C)CC)C(=O)N[C@@H](CC(C)C)C(=O)N[C@@H](CCCNC(=N)N)C(=O)N[C@@H](CCCCN)C(=O)N4)NC(=O)[C@H](C)NC(=O)CNC(=O)[C@@H]1CCCN1C3=O)C(=O)N[C@@H](CCCNC(=N)N)C(=O)NCC(=O)N[C@@H](CC(N)=O)C(=O)NCC(=O)N[C@@H](Cc1ccc(O)cc1)C(=O)N2` [MTAbl15] (cyclo(AAPFARRRCPRILRKCRRDSDCPGACICRGNGYCGEAIY); disulfide 9-26, 16-28, 22-34): in the series with HeLa cells, the “concentration up to which no cytotoxicity towards HeLa cells” value was greater than 64 µM. As for `CC[C@H](C)[C@@H]1NC(=O)[C@H](C)NC(=O)[C@H](CCC(=O)O)NC(=O)CNC(=O)[C@@H]2CSSC[C@@H]3NC(=O)[C@H](CC(=O)O)NC(=O)[C@H](CO)NC(=O)[C@H](CC(=O)O)NC(=O)[C@H](CCCNC(=N)N)NC(=O)[C@H](CCCNC(=N)N)NC(=O)[C@@H]4CSSC[C@H](NC(=O)[C@H]([C@@H](C)CC)NC(=O)[C@H](CSSC[C@H](NC(=O)[C@H](C)NC(=O)[C@H](Cc5ccccc5)NC(=O)[C@@H]5CCCN5C(=O)[C@H](C)NC(=O)[C@H](C)NC(=O)[C@H](Cc5ccc(O)cc5)NC1=O)C(=O)N1CCC[C@H]1C(=O)N[C@@H](CCCCN)C(=O)N[C@@H]([C@@H](C)CC)C(=O)N[C@@H](CC(C)C)C(=O)N[C@@H](CCCCN)C(=O)N[C@@H](CCCCN)C(=O)N4)NC(=O)[C@H](C)NC(=O)CNC(=O)[C@@H]1CCCN1C3=O)C(=O)N[C@@H](CCCNC(=N)N)C(=O)NCC(=O)N[C@@H](CC(N)=O)C(=O)NCC(=O)N[C@@H](Cc1ccc(O)cc1)C(=O)N2` [MTAbl01] (cyclo(AAPFACPKILKKCRRDSDCPGACICRGNGYCGEAIY); disulfide 6-23, 13-25, 19-31), at Abl kinase, the “percentage of Abl kinase inhibition” value was found to be 75%. As to “EAIYAAPFAKKK [abltide, reference compound]”, in the series “Serum stability assay” (30 μM peptide, RP-HPLC), the “time to complete degradation in human serum” value is no more than 1 h.
